Reference: patent publication US12263248B2, “Compounds and compositions for intracellular delivery of therapeutic agents” (ModernaTX, Inc., priority 2018, dated 2025)

Assays:
IL-6, IP-10 = assay: Cytokine induction in mice upon intravenous administration; type: in vivo; set-up: Cytokine induction IL-6 / Cytokine induction IP-10: unit not given here; conditions: 0.5 mpk, 6 hours; for Cytokine induction IL-6 / Cytokine induction IP-10: intravenous; for IP-10 induction / IL-6 induction: i.v., in words
How it was run: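 IL-6 and IP-10 concentrations determined 6 hours after a single intravenous 0.5 mpk dose of lipid nanoparticle formulation in mice, with MC3 and PBS as comparators.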

luciferase (Luc) mRNA [1] = assay: Luc expression in liver, lung, spleen and femur 6 hours after intravenous administration; type: in vivo; conditions: mice, 0.5 mpk; for Total Flux Femur / Total Flux Liver / Total Flux Lung / Total Flux Spleen: intravenous
How it was run: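 LNP-formulated mRNA given IV to mice (n=3) at 0.5 mpk; at 6 h, bioluminescence imaged ex vivo 15 min after IP D-luciferin (15 mg/mL, 200 μL), organs imaged within 25 min. Values are total flux by region of interest.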

luciferase (Luc) mRNA [2] = assay: Luc expression, whole body bioluminescence after intravenous administration to mice; type: in vivo; conditions: for Total Flux 3 hours / Total Flux 6 hours / Total Flux 24 hours: Luc mRNA; for Fold increase in total body Luc Flux relative to MC3 at 6 h: Table 3A, i.v. administration; for Novel lipid/MC3 ratio, 6 hr. timepoint, i.v. / Novel lipid/MC3 expression ratio, 6 hr. time point, i.v.: luciferase; for Novel lipid/MC3 ratio, 6 hr. timepoint, i.v.: relative to MC3, Table 3G; for Novel lipid/MC3 expression ratio, 6 hr. time point, i.v.: relative to MC3 formulation; for luciferase activity relative to MC3 LNP control: 0.5 mg/kg (mRNA dose)
How it was run: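 Bioluminescence, read as region-of-interest total flux at 3, 6 and 24 h, followed a single 0.5 mg/kg intravenous dose of Luc mRNA-loaded nanoparticles in mice (n=6). Luciferin substrate (200 μL, 15 mg/mL in PBS) was injected intraperitoneally into CD-1 mice 15 minutes ahead of each imaging point.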

luciferase (Luc) mRNA [3] = assay: Luc expression (total flux) after intramuscular administration; type: in vivo, mice; conditions: for Total flux, 0.001 mpk Dose / Total flux, 0.01 mpk Dose: 6 hours after intramuscular administration, Luc mRNA and H10 mRNA; for Novel lipid/MC3 expression ratio, 6 hr. time point, i.m. Luc: relative to MC3 formulation
How it was run: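 Total-flux luciferase signal in mice after one intramuscular injection. Nanoparticle formulations contained modified Luc mRNA, either alone or co-dosed with H10 mRNA (e.g., 0.0005 or 0.005 mpk of each), giving 0.001 or 0.01 mpk.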

| SMILES | Cytokine induction IL-6 (IL-6, IP-10) | Cytokine induction IP-10 (IL-6, IP-10) | Total Flux Femur (luciferase (Luc) mRNA [1]) | Total Flux Liver (luciferase (Luc) mRNA [1]) | Total Flux Lung (luciferase (Luc) mRNA [1]) | Total Flux Spleen (luciferase (Luc) mRNA [1]) | Total Flux 3 hours (luciferase (Luc) mRNA [2]; mice, i.v., 0.5 mg/kg) | Total Flux 6 hours (luciferase (Luc) mRNA [2]; mice, i.v., 0.5 mg/kg) | Total Flux 24 hours (luciferase (Luc) mRNA [2]; mice, i.v., 0.5 mg/kg) | Total flux, 0.001 mpk Dose (luciferase (Luc) mRNA [3]) | Total flux, 0.01 mpk Dose (luciferase (Luc) mRNA [3]; 0.01 mpk) | Fold increase in total body Luc Flux relative to MC3 at 6 h (luciferase (Luc) mRNA [2]) | other results |
| --- | --- | --- | --- | --- | --- | --- | --- | --- | --- | --- | --- | --- | --- |
| CCCCCCCCCOC(=O)CCCCCCCN(CCO)CCCCCCCC(=O)N(CCCCCCCC)CCCCCCCC [Compound 144, Nonyl 8-((8-(dioctylamino)-8-oxooctyl)(2-hydroxyethyl)amino)octanoate] | 319.46 | 4220.55 | 2.44E+06 | 3.75E+08 | 4.81E+06 | 5.11E+07 | 9.50E+09 | 1.82E+09 | 3.36E+08 | 2.72E+06 p/s | 2.18E+07 p/s | – | – |
| CCCCCCCCCOC(=O)CCCCCCCN(CCO)CCCCCCC(=O)OCC(CCCCCCCC)CCCCCCCC [Compound 143, Nonyl 8-((2-hydroxyethyl)(7-((2-octyldecyl)oxy)-7-oxoheptyl)amino)octanoate] | 6.245 | 209.63 | – | 1.76E+09 | 3.60E+07 | 1.42E+08 | 1.76E+10 | 2.03E+10 | 2.47E+08 | – | – | – | AUC (p/s * h) (luciferase (Luc) mRNA [3]; Table 3H, intramuscular, Luc): 2.29E+09 p/s * h; Lipid/MC3 AUC (luciferase (Luc) mRNA [3]; Table 3H, intramuscular, Luc): 3.89; Novel lipid/MC3 expression ratio, 6 hr. time point, i.m. Luc (luciferase (Luc) mRNA [3]; intramuscular): 4.05 |
| CCCCCCCCCOC(=O)CCCCCCCN(CCO)CCCCCCCOC(=O)C(CCCCCCCC)CCCCCCCC [Compound 30, 7-((2-Hydroxyethyl)(8-(nonyloxy)-8-oxooctyl)amino)heptyl 2-octyldecanoate] | 152.51 | 1638.77 | 6.38E+06 | 2.68E+09 | 1.02E+07 | 3.55E+07 | 1.19E+10 | 2.09E+10 | 1.21E+09 | 2.47E+06 p/s | 3.77E+07 p/s | 2.49 | Novel lipid/MC3 ratio, 6 hr. timepoint, i.v. (luciferase (Luc) mRNA [2]; intravenous): 2.49; Novel lipid/MC3 expression ratio, 6 hr. time point, i.v. (luciferase (Luc) mRNA [2]; intravenous): 2.49; Novel lipid/MC3 expression ratio, 6 hr. time point, i.m. Luc (luciferase (Luc) mRNA [3]; intramuscular): 4.69 |
| CCCCCCCCCOC(=O)CCCCCCCN(CCO)CCCCCCCC(=O)OCCCCCCCCC [Compound 138, Dinonyl 8,8′-((2-hydroxyethyl)azanediyl)dioctanoate] | 23.38 | 172.56 | 1.58E+05 | 3.66E+06 | 9.47E+04 | 4.04E+06 | 2.97E+07 | 2.30E+07 | 1.63E+06 | 2.72E+05 p/s | 1.19E+06 p/s | – | – |
| CCCCCCCCCN(CCCO)CCCCCCCC(=O)OC(CCCCCCCC)CCCCCCCC [Compound 7, Heptadecan-9-yl 8-((3-hydroxypropyl)(nonyl)amino)octanoate] | 116.35 | 4959.16 | – | 2.49E+09 | 3.95E+07 | 4.83E+08 | 4.13E+10 | 4.03E+10 | 1.68E+09 | 3.65E+06 p/s | 7.48E+07 p/s | – | IP-10 induction (IL-6, IP-10): highest; Flux in the spleen (luciferase (Luc) mRNA [1]; i.v., in words): highest |
| CCCCCCCC/C=C\COC(=O)CCCCCN(CCO)CCCCCC(=O)OC/C=C\CCCCCCCC [Compound 140, Di((Z)-undec-2-en-1-yl) 6,6′-((2-hydroxyethyl)azanediyl)dihexanoate] | 282.82 | 187.83 | 3.26E+04 | 4.21E+05 | 2.14E+04 | 2.22E+05 | 3.74E+06 | 1.70E+06 | 5.67E+05 | 2.03E+05 p/s | 6.09E+05 p/s | – | flux at all timepoints measured (luciferase (Luc) mRNA [2]; mice, i.v., 0.5 mg/kg, 3, 6 and 24 hour, in words): significantly lower flux |
| CCCCCCCCCCCOC(=O)CCCCCN(CCO)CCCCCCCC(=O)OC(CCCCCCCC)CCCCCCCC [Compound 25, Heptadecan-9-yl 8-((2-hydroxyethyl)(6-oxo-6-(undecyloxy)hexyl)amino)octanoate] | 233.45 | 1194.13 | 4.40E+06 | 2.41E+09 | 1.51E+07 | 3.11E+07 | 2.27E+10 | 1.59E+10 | 9.77E+08 | 3.53E+06 p/s | 9.96E+07 p/s | 1.89 | Lipid/MC3 Luc expression (luciferase (Luc) mRNA [2]; 0.5 mpk dose to mouse, 6 hours after administration): 1.89; Novel lipid/MC3 ratio, 6 hr. timepoint, i.v. (luciferase (Luc) mRNA [2]; intravenous): 1.89; Novel lipid/MC3 expression ratio, 6 hr. time point, i.v. (luciferase (Luc) mRNA [2]; intravenous): 1.89; luciferase activity relative to MC3 LNP control (luciferase (Luc) mRNA [2]; mice, intravenous): higher expression compared to MC3; Novel lipid/MC3 expression ratio, 6 hr. time point, i.m. Luc (luciferase (Luc) mRNA [3]; intramuscular): 1.46 |
| CCCCCCCCCOC(=O)CCCCCCCN(CCO)CCCCCCCC(=O)OC(CCCCCCCC)CCCCCCCC [Compound 18, Heptadecan-9-yl 8-((2-hydroxyethyl)(8-(nonyloxy)-8-oxooctyl)amino)octanoate] | 78.76 | 139.92 | 4.68E+06 | 2.76E+09 | 1.25E+07 | 5.15E+07 | 1.71E+10 | 2.13E+10 | 2.51E+09 | – | 8.84E+07 p/s | 3.22 | IP-10 induction (IL-6, IP-10): lowest; fold increase in Luc expression over MC3 formulations (luciferase (Luc) mRNA [2]; intravenous administration, in words): highest fold increase; Fold increase in Luc expression relative to MC3, Intravenous (0.5 mpk dose) (luciferase (Luc) mRNA [2]; intravenous, 0.5 mpk): 3.23; luciferase activity relative to MC3 LNP control (luciferase (Luc) mRNA [2]; mice, intravenous): 3 fold; Average total flux (6 h, ffluc) (luciferase (Luc) mRNA [2]; mice, intravenous, 6 h): 2.13 × 10^10; Fold increase in average total flux relative to MC3 (luciferase (Luc) mRNA [2]; mice, intravenous, 6 h): 3.23; Fold increase in Luc expression relative to MC3, Intramuscular (0.01 mpk dose) (luciferase (Luc) mRNA [3]; intramuscular, 0.01 mpk): 2.01 |
| CCCCCCCCCOC(=O)CCCCCCCN(CCO)CCCCCCCCCC(=O)OC(CCCCCCCC)CCCCCCCC [Compound 23, Heptadecan-9-yl 10-((2-hydroxyethyl)(8-(nonyloxy)-8-oxooctyl)amino) decanoate] | 94.00 | 1015.95 | 1.19E+06 | 2.92E+08 | 1.82E+06 | 3.08E+07 | 1.83E+09 | 1.15E+09 | 3.71E+08 | 8.27E+06 p/s | 2.20E+06 p/s | – | – |
| CCCCCCCCC(CCCCCCCC)OC(=O)CCCCCCCN(CCO)CCCCCCCC(=O)OCC1CC1CCCCCC (stereo not drawn) [Compound 28, Heptadecan-9-yl 8-((8-((2-hexylcyclopropyl)methoxy)-8-oxooctyl)(2-hydroxyethyl)amino)octanoate] | 17.47 | 283.13 | – | 1.22E+10 | 2.17E+08 | 1.80E+08 | 8.98E+10 | 1.13E+11 | 1.20E+09 | 6.73E+05 p/s | 5.56E+06 p/s | 2.46 | IL-6 induction (IL-6, IP-10): lowest; Flux in the liver (luciferase (Luc) mRNA [1]; i.v., in words): highest; total flux at 3 hours (luciferase (Luc) mRNA [2]; mice, i.v., 0.5 mg/kg, comparison in words): highest |
| CCCCCCCCCOC(=O)CCCCCCCN(CCCCCCCC(=O)OC(CCCCCCCC)CCCCCCCC)C[C@H](C)O [Compound 12, Heptadecan-9-yl (S)-8-((2-hydroxypropyl)(8-(nonyloxy)-8-oxooctyl)amino)octanoate] | 3.88 | 32.03 | – | 6.84E+08 | 7.45E+06 | 6.82E+07 | 5.14E+09 | 1.27E+10 | 2.45E+08 | 8.02E+04 p/s | 8.90E+05 p/s | – | IL-6 induction (IL-6, IP-10): lowest; IP-10 induction (IL-6, IP-10): lowest |
